One data set deals with mice. The note with it: Cokeleare et al. 1995; cited from earlier work.
The next data set relates to rats. The settings on record: Cokeleare et al. 1995; cited from earlier work.
The test system of the next data set is chickens. The note with it: Cokeleare et al. 1995; cited from earlier work.
Data set [1] can be described thus: Solubility of didemethyl simmondsin in absolute ethanol. It counts as physicochemical. The procedure:
DWE, 1 gram, was stirred 30 min with 20 ml of either acetone, acetonitrile,chloroform, methanol, water, ethanol, isopropanol, 95/5 isopropanol/water or 5/95 methanol/chloroform. Supernatant was filtered, dried, weighed, and analyzed for simmondsin and analogues. […] Both the amount of simmondsins extracted and their enrichment in the extract are important in choosing a selective solvent. Therefore, selectivity was calculated as enrichment times concentration for each component, simmondsin, simmondsin ferulate, demethylsimmondsin and didemethyl simmondsin as well as the total for all four components and plotted against solvent composition and solvent to solute ratio. For simmondsin, selectivity or SIMM-- X=[(concentration of simmondsin in extract)/(concentration of simmondsin in DWE)][weight of simmondsin in extract/weight of simmondsin in DWE].

The conditions of data set [2]: statement without test; cited from earlier work.

Take `CO[C@H]1[C@@H](OC)C[C@@H](O[C@@H]2O[C@H](CO)[C@@H](O)[C@H](O)[C@H]2O)/C(=C\C#N)[C@@H]1O` [simmondsin]: the Food intake entry in the data set with mice, in the data set on rats and with chickens was “reduces food intake” in each case.
For `N#CC=C1C(OC2OC(CO)C(O)C(O)C2O)CC(O)C(O)C1O` (centres unmarked) [didemethyl simmondsin], the “Solubility in absolute ethanol” value in data set [1] is on record as “very limited”. Besides, in data set [2], the Bioactivity result is recorded as “non-bioactive”.
